This passage reports Ki results from patent publication US10633379B2, “Bromodomain inhibitors” (AbbVie Inc., priority 2016, dated 2020).

For one test, the target named is BRD4 (BDI_K57-E168) (Homo sapiens (Human), UniProt O60885). In words: TR-FRET bromodomain binding assay, BRD4 BDI. The following applies: mean Ki, calculated from IC50, probe Kd and probe concentration. As to the method: (§1) A time-resolved fluorescence resonance energy transfer (TR-FRET) assay was used to determine the affinities of compounds of the Examples listed in Table 1 for each bromodomain of BRD4. His-tagged first (BDI: amino acids K57-E168) and second (BDII: amino acids E352-M457) bromodomains of BRD4 were expressed and purified. An Alexa647-labeled BET-inhibitor was used as the fluorescent probe in the assay.
(§2) Compound dilution series were prepared in DMSO via an approximately 3-fold serial dilution. Compound dilutions were added directly into white, low-volume assay plates (Perkin Elmer Proxiplate 384 Plus#6008280) using a Labcyte Echo in conjunction with Labcyte Access and Thermo Multidrop CombinL robotics. Compounds were then suspended in eight microliters (μL) of assay buffer (20 mM Sodium Phosphate, pH 6.0, 50 mM NaCl, 1 mM Ethylenediaminetetraacetic acid disodium salt dihydrate, 0.01% Triton X-100, 1 mM DL-Dithiothreitol) containing His-tagged bromodomain, Europium-conjugated anti-His antibody (Invitrogen PV5596) and Alexa-647-conjugated probe.
(§3) The final concentration of 1× assay mixture contained 2% DMSO, 12 nM His tagged BRD4 (BDI_K57-E168) and 100 nM probe or 4 nM His tagged BRD4 (BDII_E352-M457) and 30 nM probe, and 1 nM Europium-conjugated anti-His-tag antibody, and compound concentrations in the range of: 49.02 μM-0.61 nM or 0.98 μM-0.15 nM.
(§4) After a one-hour equilibration at room temperature, TR-FRET ratios were determined using an Envision multilabel plate reader (Ex 340, Em 495/520).
(§5) TR-FRET data were normalized to the means of 24 no-compound controls (“high”) and 8 controls containing 1 μM un-labeled probe (“low”). Percent inhibition was plotted as a function of compound concentration and the data were fit with the 4 parameter logistic equation to obtain IC50s. Inhibition constants (Ki) were calculated from the IC50s, probe Kd and probe concentration.

The target of the next test is BRD4 (BDII_E352-M457) (Homo sapiens (Human), UniProt O60885). Description: TR-FRET bromodomain binding assay, BRD4 BDII. The note with it: mean Ki, calculated from IC50, probe Kd and probe concentration. As to the method:
as §1, §2, §3, §4, §5

For `CCNC(=O)c1cc2c(-c3cc(C(O)(CC)Cc4ccc(F)cc4)cnc3Oc3c(C)cccc3C)cn(C)c(=O)c2[nH]1` (stereo not shown) [Example 15, 4-{2-(2,6-dimethylphenoxy)-5-[1-(4-fluorophenyl)-2-hydroxybutan-2-yl]pyridin-3-yl}-N-ethyl-6-methyl-7-oxo-6,7-dihydro-1H-pyrrolo[2,3-c]pyridine-2-carboxamide], the Ki at BRD4 (BDI_K57-E168) is 1.84 µM; at BRD4 (BDII_E352-M457), 0.0265 µM.

Regarding `CCNC(=O)c1cc2c(-c3cc(C(C)(O)c4ccccc4)cnc3Oc3c(C)cccc3C)cn(C)c(=O)c2[nH]1` (stereo not shown) [Example 16, 4-[2-(2,6-dimethylphenoxy)-5-(1-hydroxy-1-phenylethyl)pyridin-3-yl]-N-ethyl-6-methyl-7-oxo-6,7-dihydro-1H-pyrrolo[2,3-c]pyridine-2-carboxamide], the results for the Ki at BRD4 (BDI_K57-E168) and on BRD4 (BDII_E352-M457) were 0.333 µM and 0.0023 µM, respectively.

Regarding `CCNC(=O)c1cc2c(-c3cc(C(C)(O)c4ccc(F)cc4)cnc3Oc3c(C)cccc3C)cn(C)c(=O)c2[nH]1` (stereo not shown) [Example 17, 4-{2-(2,6-dimethylphenoxy)-5-[1-(4-fluorophenyl)-1-hydroxyethyl]pyridin-3-yl}-N-ethyl-6-methyl-7-oxo-6,7-dihydro-1H-pyrrolo[2,3-c]pyridine-2-carboxamide], the Ki at BRD4 (BDI_K57-E168) is 0.467 µM; at BRD4 (BDII_E352-M457), 0.003 µM.

In the case of `CCNC(=O)c1cc2c(-c3cc(C(C)(O)CC(C)C)cnc3Oc3c(C)cccc3C)cn(C)c(=O)c2[nH]1` (stereo not shown) [Example 18, 4-[2-(2,6-dimethylphenoxy)-5-(2-hydroxy-4-methylpentan-2-yl)pyridin-3-yl]-N-ethyl-6-methyl-7-oxo-6,7-dihydro-1H-pyrrolo[2,3-c]pyridine-2-carboxamide], the Ki is 0.449 µM on BRD4 (BDI_K57-E168) and 0.0038 µM at BRD4 (BDII_E352-M457).

On to `CCNC(=O)c1cc2c(-c3cc(C(C)(O)C(C)C)cnc3Oc3c(C)cccc3C)cn(C)c(=O)c2[nH]1` (stereo not shown) [Example 19, 4-[2-(2,6-dimethylphenoxy)-5-(2-hydroxy-3-methylbutan-2-yl)pyridin-3-yl]-N-ethyl-6-methyl-7-oxo-6,7-dihydro-1H-pyrrolo[2,3-c]pyridine-2-carboxamide], for which the figures for the Ki at BRD4 (BDI_K57-E168) and at BRD4 (BDII_E352-M457) were 0.196 µM and 0.004 µM, respectively.

With `CCNC(=O)c1cc2c(-c3cc(C(C)(O)C(C)CC)cnc3Oc3c(C)cccc3C)cn(C)c(=O)c2[nH]1` (stereo not shown) [Example 20, 4-[2-(2,6-dimethylphenoxy)-5-(2-hydroxy-3-methylpentan-2-yl)pyridin-3-yl]-N-ethyl-6-methyl-7-oxo-6,7-dihydro-1H-pyrrolo[2,3-c]pyridine-2-carboxamide], the Ki on BRD4 (BDI_K57-E168) was 0.363 µM; on BRD4 (BDII_E352-M457) it was 0.0031 µM.

For the compound `CCNC(=O)c1cc2c(-c3cc(C(C)(O)CCc4ccccc4)cnc3Oc3c(C)cccc3C)cn(C)c(=O)c2[nH]1` (stereo not shown) [Example 21, 4-[2-(2,6-dimethylphenoxy)-5-(2-hydroxy-4-phenylbutan-2-yl)pyridin-3-yl]-N-ethyl-6-methyl-7-oxo-6,7-dihydro-1H-pyrrolo[2,3-c]pyridine-2-carboxamide], the Ki at BRD4 (BDI_K57-E168) was 0.521 µM; on BRD4 (BDII_E352-M457), 0.0015 µM.

In the case of `CCNC(=O)c1cc2c(-c3cc(C(C)(O)Cc4ccc(F)cc4)cnc3Oc3c(C)cccc3C)cn(C)c(=O)c2[nH]1` (stereo not shown) [Example 22, 4-{2-(2,6-dimethylphenoxy)-5-[1-(4-fluorophenyl)-2-hydroxypropan-2-yl]pyridin-3-yl}-N-ethyl-6-methyl-7-oxo-6,7-dihydro-1H-pyrrolo[2,3-c]pyridine-2-carboxamide], the Ki on BRD4 (BDI_K57-E168) was 2.5 µM; at BRD4 (BDII_E352-M457), 0.0105 µM.

Turning to `CCNC(=O)c1cc2c(-c3cc(C(O)(c4ccc(F)cc4)C4CC4)cnc3Oc3c(C)cccc3C)cn(C)c(=O)c2[nH]1` (stereo not shown) [Example 23, 4-{5-[cyclopropyl (4-fluorophenyl)hydroxymethyl]-2-(2,6-dimethylphenoxy)pyridin-3-yl}-N-ethyl-6-methyl-7-oxo-6,7-dihydro-1H-pyrrolo[2,3-c]pyridine-2-carboxamide], the Ki was 0.701 µM at BRD4 (BDI_K57-E168) and 0.0032 µM on BRD4 (BDII_E352-M457).

As for `CCNC(=O)c1cc2c(-c3cc(C(O)(C4CCCC4)C4CC4)cnc3Oc3c(C)cccc3C)cn(C)c(=O)c2[nH]1` (stereo not shown) [Example 24, 4-{5-[cyclopentyl(cyclopropyl)hydroxymethyl]-2-(2,6-dimethylphenoxy)pyridin-3-yl}-N-ethyl-6-methyl-7-oxo-6,7-dihydro-1H-pyrrolo[2,3-c]pyridine-2-carboxamide], the Ki at BRD4 (BDI_K57-E168) was 0.079 µM; at BRD4 (BDII_E352-M457), 0.0017 µM.

For the compound `CCNC(=O)c1cc2c(-c3cc(C(O)(C4CC4)C4CC4)cnc3Oc3c(C)cccc3C)cn(C)c(=O)c2[nH]1` [Example 25, 4-{5-[dicyclopropyl(hydroxy)methyl]-2-(2,6-dimethylphenoxy)pyridin-3-yl}-N-ethyl-6-methyl-7-oxo-6,7-dihydro-1H-pyrrolo[2,3-c]pyridine-2-carboxamide], the results for the Ki on BRD4 (BDI_K57-E168) and at BRD4 (BDII_E352-M457) were 0.171 µM and 0.003 µM, respectively.

In the case of `CCNC(=O)c1cc2c(-c3cc(C(O)(C(C)C)C4CC4)cnc3Oc3c(C)cccc3C)cn(C)c(=O)c2[nH]1` (stereo not shown) [Example 26, 4-[5-(1-cyclopropyl-1-hydroxy-2-methylpropyl)-2-(2,6-dimethylphenoxy)pyridin-3-yl]-N-ethyl-6-methyl-7-oxo-6,7-dihydro-1H-pyrrolo[2,3-c]pyridine-2-carboxamide], the figures for the Ki on BRD4 (BDI_K57-E168) and at BRD4 (BDII_E352-M457) were 0.015 µM and 0.0015 µM, respectively.

As to `CCNC(=O)c1cc2c(-c3cc(C(O)(C(C)CC)C4CC4)cnc3Oc3c(C)cccc3C)cn(C)c(=O)c2[nH]1` (stereo not shown) [Example 27, 4-[5-(1-cyclopropyl-1-hydroxy-2-methylbutyl)-2-(2,6-dimethylphenoxy)pyridin-3-yl]-N-ethyl-6-methyl-7-oxo-6,7-dihydro-1H-pyrrolo[2,3-c]pyridine-2-carboxamide], the Ki was 0.044 µM on BRD4 (BDI_K57-E168) and 0.0018 µM at BRD4 (BDII_E352-M457).

For the compound `CCNC(=O)c1cc2c(-c3cc(C(C)(C)O)ccc3Oc3c(C)cccc3C(F)(F)F)cn(C)c(=O)c2[nH]1` [Example 28, N-ethyl-4-{5-(2-hydroxypropan-2-yl)-2-[2-methyl-6-(trifluoromethyl)phenoxy]phenyl}-6-methyl-7-oxo-6,7-dihydro-1H-pyrrolo[2,3-c]pyridine-2-carboxamide], the Ki was 1.18 µM on BRD4 (BDI_K57-E168) and 0.0054 µM on BRD4 (BDII_E352-M457).

With `CCNC(=O)c1cc2c(-c3cc(C(C)(C)O)cnc3Oc3c(C)cccc3Cl)cn(C)c(=O)c2[nH]1` [Example 29, 4-[2-(2-chloro-6-methylphenoxy)-5-(2-hydroxypropan-2-yl)pyridin-3-yl]-N-ethyl-6-methyl-7-oxo-6,7-dihydro-1H-pyrrolo[2,3-c]pyridine-2-carboxamide], the Ki on BRD4 (BDI_K57-E168) is 0.594 µM; on BRD4 (BDII_E352-M457), 0.0013 µM.

As to `CCNC(=O)c1cc2c(-c3cc(C(C)(C)O)ccc3Oc3c(C)cccc3Cl)cn(C)c(=O)c2[nH]1` [Example 30, 4-[2-(2-chloro-6-methylphenoxy)-5-(2-hydroxypropan-2-yl)phenyl]-N-ethyl-6-methyl-7-oxo-6,7-dihydro-1H-pyrrolo[2,3-c]pyridine-2-carboxamide], the results for the Ki at BRD4 (BDI_K57-E168) and on BRD4 (BDII_E352-M457) were 0.279 µM and 0.0019 µM, respectively.

Take `Cc1cccc(Cl)c1Oc1ccc(C(C)(C)O)cc1-c1cn(C)c(=O)c2[nH]c(C(=O)NC(C)(C)C)cc12` [Example 31, N-tert-butyl-4-[2-(2-chloro-6-methylphenoxy)-5-(2-hydroxypropan-2-yl)phenyl]-6-methyl-7-oxo-6,7-dihydro-1H-pyrrolo[2,3-c]pyridine-2-carboxamide]: the figures for the Ki on BRD4 (BDI_K57-E168) and on BRD4 (BDII_E352-M457) were 0.26 µM and 0.0033 µM, respectively.

As for `Cn1cc(-c2cc(C(C)(C)O)ccc2-c2ccc(F)cc2F)c2cc(C(=O)NC(C)(C)C)[nH]c2c1=O` [Example 33, N-tert-butyl-4-[2′,4′-difluoro-4-(2-hydroxypropan-2-yl)[1,1′-biphenyl]-2-yl]-6-methyl-7-oxo-6,7-dihydro-1H-pyrrolo[2,3-c]pyridine-2-carboxamide], the inhibitory constant (Ki) on BRD4 (BDI_K57-E168) is 0.921 µM; on BRD4 (BDII_E352-M457) it was 0.0064 µM.

For the compound `Cc1cccc(C)c1Oc1ncc(C(C)(C)O)cc1-c1cn(C)c(=O)c2[nH]c(C(=O)NC3(C)CC3(F)F)cc12` (stereo not shown) [Example 34, N-(2,2-difluoro-1-methylcyclopropyl)-4-[2-(2,6-dimethylphenoxy)-5-(2-hydroxypropan-2-yl)pyridin-3-yl]-6-methyl-7-oxo-6,7-dihydro-1H-pyrrolo[2,3-c]pyridine-2-carboxamide], the values for the Ki at BRD4 (BDI_K57-E168) and on BRD4 (BDII_E352-M457) were 0.729 µM and 0.0051 µM, respectively.

Regarding `Cc1cc(F)cc(C)c1Oc1ccc(C(C)(C)O)cc1-c1cn(C)c(=O)c2[nH]c(C(=O)NC(C)(C)C)cc12` [Example 36, N-tert-butyl-4-[2-(4-fluoro-2,6-dimethylphenoxy)-5-(2-hydroxypropan-2-yl)phenyl]-6-methyl-7-oxo-6,7-dihydro-1H-pyrrolo[2,3-c]pyridine-2-carboxamide], the Ki was 0.579 µM on BRD4 (BDI_K57-E168) and 0.0034 µM at BRD4 (BDII_E352-M457).
